Results on five molecules are retold here after ChEMBL document CHEMBL5096191 (J Med Chem, 2021).

Common to all, as to type: functional, cell-based
Assay [1] has as its target T1, Cannabinoid receptor 2 (Homo sapiens, UniProt P34972). The assay can be described thus: Positive allosteric modulation of JWH-133-induced agonist activity at wild type CB2 receptor (unknown origin) stably expressed in HEK293T cells assessed as inhibition of forskolin-stimulated cAMP levels preincubated for 15 mins followed by forskolin addition incubated for 15 mins by HTRF assay.

The target in assay [2] is T1, Cannabinoid receptor 2. The assay can be described thus: Positive allosteric modulation of JWH-133-induced agonist activity at wild type CB2 receptor (unknown origin) stably expressed in HEK293T cells assessed as inhibition of forskolin-stimulated cAMP levels preincubated for 15 mins followed by forskolin addition incubated for 15 mins by HTRF assay relative to control. As to conditions: filed as positive allosteric modulator, time 30.0 min.

In assay [3] the target is T1, Cannabinoid receptor 2. The assay can be described thus: Negative allosteric modulation of JWH-133-induced agonist activity at wild type CB2 receptor (unknown origin) stably expressed in HEK293T cells assessed as decrease in cAMP levels preincubated for 15 mins followed by forskolin addition incubated for 15 mins by HTRF assay relative to JWH-133. As to conditions: time 30.0 min.

In assay [4] the target is T1, Cannabinoid receptor 2. The assay can be described thus: Positive allosteric modulation of JWH-133-induced agonist activity at wild type CB2 receptor (unknown origin) stably expressed in HEK293T cells assessed as decrease in cAMP levels preincubated for 15 mins followed by forskolin addition incubated for 15 mins by HTRF assay relative to JWH-133. The settings on record: filed as positive allosteric modulator, time 30.0 min.

In assay [5] the test system is Cannabinoid receptor 2 (Homo sapiens), P34972 [V113M]. The assay can be described thus: Partial agonist activity at CBR2 V1133.32M mutant (unknown origin) expressed in HEK293T assessed as increase in picometer shifts of reflected light wavelengths by DMR assay relative to control.
The target in assay [6] is T1, Cannabinoid receptor 2. The assay can be described thus: Partial agonist activity at wild type CB2 receptor (unknown origin) expressed in HEK293T assessed as increase in picometer shifts of reflected light wavelengths by DMR assay relative to control. The settings on record: filed as partial agonist.
Assay [7] deals with Cannabinoid receptor 2 (Homo sapiens), P34972 [V113M]. The assay can be described thus: Partial agonist activity at CBR2 V1133.32M mutant (unknown origin) stably expressed in HEK293T assessed as decrease in forskolin induced cAMP level preincubated for 15 mins followed by forskolin addition incubated for 15 mins by HTRF assay relative to control. The settings on record: filed as partial agonist, time 30.0 min.

The test system is the same in assay [8]. The assay can be described thus: Partial agonist activity at CBR2 V1133.32M mutant (unknown origin) expressed in HEK293T assessed as increase in ERK1/2 phosphorylation incubated for 7 mins by AlphaScreenSureFire method relative to control. As to conditions: filed as partial agonist.
Assay [9] addresses T1, Cannabinoid receptor 2. In words: Partial agonist activity at wild type CB2 receptor (unknown origin) expressed in HEK293T assessed as increase in ERK1/2 phosphorylation incubated for 7 mins by AlphaScreenSureFire method relative to control. The settings on record: filed as partial agonist.
For assay [10], the target named is T1, Cannabinoid receptor 2. The assay can be described thus: Partial agonist activity at wild type CB2 receptor (unknown origin) stably expressed in HEK293T assessed as decrease in forskolin induced cAMP level preincubated for 15 mins followed by forskolin addition incubated for 15 mins by HTRF assay relative to control. The settings on record: filed as partial agonist, time 30.0 min.

Chain of Cannabinoid receptor 2 (Homo sapiens), P34972 [V113M] (P34972 whole entry V113M): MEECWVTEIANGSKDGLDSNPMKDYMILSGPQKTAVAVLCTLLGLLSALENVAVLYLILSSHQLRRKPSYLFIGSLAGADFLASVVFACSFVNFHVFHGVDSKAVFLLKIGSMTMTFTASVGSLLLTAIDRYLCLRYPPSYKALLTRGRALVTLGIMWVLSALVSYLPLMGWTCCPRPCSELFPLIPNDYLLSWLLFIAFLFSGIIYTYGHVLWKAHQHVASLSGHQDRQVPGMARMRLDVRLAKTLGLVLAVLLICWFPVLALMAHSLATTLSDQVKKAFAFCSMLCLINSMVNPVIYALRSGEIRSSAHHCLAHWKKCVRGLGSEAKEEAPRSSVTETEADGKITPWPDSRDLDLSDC
T1 sequence (P34972 whole entry): as the sequence (P34972 whole entry V113M) above, with M113V counted along it

As to `C=C(C)[C@@H]1CCC(C)=C[C@H]1c1c(O)cc(CCCCCC)cc1O`, the EC50 in assay [1] was 126 nM. Besides, in assay [2], the maximal response (Emax) was found to be 83.5%. Further, in assay [3], the %max worked out at 38%.

With `C=C(C)[C@@H]1CCC(C)=C[C@H]1c1c(O)cc(CCC)cc1O` [CANNABIDIVARIN], the 50% effective concentration (EC50) in assay [1] is 12.6 nM. Besides, the Emax in assay [2] is 48%. Moreover, the %max in [4] worked out at 118%.

With `C=C(C)[C@@H]1CCC(C)=C[C@H]1c1c(O)cc(CC)cc1O`, in assay [1], the 50% effective concentration (EC50) was 31.6 nM. Moreover, in assay [2], the Emax is 45.3%. For the same molecule, in assay [4], the %max came out at 124%.

As for `C=C(C)[C@@H]1CCC(C)=C[C@H]1c1c(O)cc(CCCC)cc1O`, the EC50 in assay [1] was 200 nM. In addition, the maximum response (Emax) in assay [2] amounted to 64.1%. Besides, the %max in assay [3] (filed as negative allosteric modulator) came out at 82%.

As to `C=C(C)[C@@H]1CCC(C)=C[C@H]1c1c(O)cc(CCCCC)cc1O`, the Emax in assay [5] was 5.3%; in [6], 49.1%; in assay [7] it was 89.1%; in assay [8], 186%; in [9] it was 156%; in assay [2], 67.8%. Moreover, the maximal response (Emax) in [10] turned out to be 74%.
